Results published in BigSolDB 2.1.

O=C(O)COc1ccc(Cl)cc1Cl
solubility (mole fraction)
Details | in tetrachloromethane | in toluene
294.15 K | – | 0.00118
298.65 K | – | 0.00178
303.15 K | – | 0.00264
303.65 K | 4.99e-05 | –
308.45 K | – | 0.00399
310.65 K | 0.000131 | –
313.25 K | – | 0.00547
313.55 K | 0.000193 | –
318.75 K | 0.000414 | 0.00821
323.05 K | 0.00074 | –
323.15 K | – | 0.0109
328.25 K | 0.00146 | –
328.85 K | – | 0.015
332.95 K | 0.00259 | –
335.35 K | – | 0.0207
338.05 K | 0.00497 | 0.0235
